# According to PubChem BioAssay (NCI):
#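 Each compound was tested at five concentrations against cells in 96-well plates for 48 hours. Here, GI50 denotes the concentration required for 50% inhibition of growth. The concentration for full growth arrest is given as TGI.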
# What was measured:
# Test in all cases: growth of human tumour cells (NCI), 48 h
# RPMI-8226 leukemia = tested on: RPMI-8226 leukemia
# HL-60(TB) leukemia = tested on: HL-60(TB) leukemia
# SK-MEL-2 melanoma = tested on: SK-MEL-2 melanoma
# T-47D breast = tested on: T-47D breast
# NCI/ADR-RES ovarian = tested on: NCI/ADR-RES ovarian
# LOX IMVI melanoma = tested on: LOX IMVI melanoma
# HOP-92 NSCLC = tested on: HOP-92 NSCLC
# SNB-75 CNS = tested on: SNB-75 CNS
# SNB-19 CNS = tested on: SNB-19 CNS
# 786-0 renal = tested on: 786-0 renal
# PC-3 prostate = tested on: PC-3 prostate
# BT-549 breast = tested on: BT-549 breast
# NCI-H460 lung = tested on: NCI-H460 lung
# OVCAR-8 ovarian = tested on: OVCAR-8 ovarian
# CCRF-CEM leukemia = tested on: CCRF-CEM leukemia
# A498 renal = tested on: A498 renal
# SW-620 colon = tested on: SW-620 colon
# HS 578T breast = tested on: HS 578T breast
# OVCAR-4 ovarian = tested on: OVCAR-4 ovarian
# SF-295 CNS = tested on: SF-295 CNS
# MOLT-4 leukemia = tested on: MOLT-4 leukemia
# HCC-2998 colon = tested on: HCC-2998 colon
# HCT-15 colon = tested on: HCT-15 colon
# SR leukemia = tested on: SR leukemia
# EKVX NSCLC = tested on: EKVX NSCLC
# MCF7 breast = tested on: MCF7 breast
# OVCAR-5 ovarian = tested on: OVCAR-5 ovarian
# K-562 leukemia = tested on: K-562 leukemia
# SK-MEL-5 melanoma = tested on: SK-MEL-5 melanoma
# SN12C renal = tested on: SN12C renal
# SF-268 CNS = tested on: SF-268 CNS
# IGROV1 ovarian = tested on: IGROV1 ovarian
# OVCAR-3 ovarian = tested on: OVCAR-3 ovarian
# DU-145 prostate = tested on: DU-145 prostate
# KM12 colon = tested on: KM12 colon
# U251 CNS = tested on: U251 CNS
# HOP-62 NSCLC = tested on: HOP-62 NSCLC
# HT29 colon = tested on: HT29 colon
# UACC-257 melanoma = tested on: UACC-257 melanoma
# MALME-3M melanoma = tested on: MALME-3M melanoma
# SK-MEL-28 melanoma = tested on: SK-MEL-28 melanoma
# HCT-116 colon = tested on: HCT-116 colon
# M14 melanoma = tested on: M14 melanoma
# MDA-MB-231 breast = tested on: MDA-MB-231 breast
# RXF 393 renal = tested on: RXF 393 renal
# UO-31 renal = tested on: UO-31 renal
# A549 NSCLC = tested on: A549 NSCLC
# COLO 205 colon = tested on: COLO 205 colon
# TK-10 renal = tested on: TK-10 renal
# UACC-62 melanoma = tested on: UACC-62 melanoma
# CAKI-1 renal = tested on: CAKI-1 renal
# NCI-H522 lung = tested on: NCI-H522 lung
# SF-539 CNS = tested on: SF-539 CNS
# MDA-MB-435 = tested on: MDA-MB-435
compound,measurement,setting,value
CC1=C2C(=C[C@@](C)(COC(=O)c3ccc(S(=O)(=O)F)cc3)[C@@H]2OC(=O)c2ccc(S(=O)(=O)F)cc2)C(=O)[C@](C)(O)C12CC2,GI50,RPMI-8226 leukemia,3.34 µM
same,TGI,RPMI-8226 leukemia,17.5 µM
same,GI50,HL-60(TB) leukemia,0.433 µM
same,TGI,HL-60(TB) leukemia,3.14 µM
same,GI50,SK-MEL-2 melanoma,1.76 µM
same,TGI,SK-MEL-2 melanoma,3.41 µM
same,GI50,T-47D breast,1.23 µM
same,TGI,T-47D breast,4.5 µM
same,GI50,NCI/ADR-RES ovarian,0.698 µM
same,TGI,NCI/ADR-RES ovarian,9.63 µM
same,GI50,LOX IMVI melanoma,1.15 µM
same,TGI,LOX IMVI melanoma,6.38 µM
same,GI50,HOP-92 NSCLC,2.11 µM
same,TGI,HOP-92 NSCLC,5.62 µM
same,GI50,SNB-75 CNS,1.35 µM
same,TGI,SNB-75 CNS,2.66 µM
same,GI50,SNB-19 CNS,2.54 µM
same,TGI,SNB-19 CNS,14.2 µM
same,GI50,786-0 renal,1.4 µM
same,TGI,786-0 renal,4.68 µM
same,GI50,PC-3 prostate,1.07 µM
same,TGI,PC-3 prostate,11.3 µM
same,GI50,BT-549 breast,1.26 µM
same,TGI,BT-549 breast,3.01 µM
same,GI50,NCI-H460 lung,0.206 µM
same,TGI,NCI-H460 lung,0.48 µM
same,GI50,OVCAR-8 ovarian,0.631 µM
same,TGI,OVCAR-8 ovarian,4.01 µM
same,GI50,CCRF-CEM leukemia,2.28 µM
same,TGI,CCRF-CEM leukemia,15.3 µM
same,GI50,A498 renal,1.82 µM
same,TGI,A498 renal,4.29 µM
same,GI50,SW-620 colon,0.607 µM
same,TGI,SW-620 colon,10.2 µM
same,GI50,HS 578T breast,2.37 µM
same,TGI,HS 578T breast,6.63 µM
same,GI50,OVCAR-4 ovarian,1.78 µM
same,TGI,OVCAR-4 ovarian,7.51 µM
same,GI50,SF-295 CNS,2.4 µM
same,TGI,SF-295 CNS,7.63 µM
same,GI50,MOLT-4 leukemia,1.01 µM
same,TGI,MOLT-4 leukemia,8.73 µM
same,GI50,HCC-2998 colon,1.31 µM
same,TGI,HCC-2998 colon,3.06 µM
same,GI50,HCT-15 colon,0.439 µM
same,TGI,HCT-15 colon,4.42 µM
same,GI50,SR leukemia,0.48 µM
same,TGI,SR leukemia,10.2 µM
same,GI50,EKVX NSCLC,3.04 µM
same,TGI,EKVX NSCLC,9.33 µM
same,GI50,MCF7 breast,0.342 µM
same,TGI,MCF7 breast,3.96 µM
same,GI50,OVCAR-5 ovarian,0.558 µM
same,TGI,OVCAR-5 ovarian,4.33 µM
same,GI50,K-562 leukemia,0.733 µM
same,TGI,K-562 leukemia,13 µM
same,GI50,SK-MEL-5 melanoma,1.48 µM
same,TGI,SK-MEL-5 melanoma,2.92 µM
same,GI50,SN12C renal,1.73 µM
same,TGI,SN12C renal,11.5 µM
same,GI50,SF-268 CNS,0.705 µM
same,TGI,SF-268 CNS,9.1 µM
same,GI50,IGROV1 ovarian,0.478 µM
same,TGI,IGROV1 ovarian,6.42 µM
same,GI50,OVCAR-3 ovarian,0.549 µM
same,TGI,OVCAR-3 ovarian,3.9 µM
same,GI50,DU-145 prostate,0.373 µM
same,TGI,DU-145 prostate,5.48 µM
same,GI50,KM12 colon,2.95 µM
same,TGI,KM12 colon,12.7 µM
same,GI50,U251 CNS,1.62 µM
same,TGI,U251 CNS,5.42 µM
same,GI50,HOP-62 NSCLC,1.46 µM
same,TGI,HOP-62 NSCLC,5.88 µM
same,GI50,HT29 colon,0.406 µM
same,TGI,HT29 colon,6.4 µM
same,GI50,UACC-257 melanoma,1.88 µM
same,TGI,UACC-257 melanoma,3.69 µM
same,GI50,MALME-3M melanoma,1.16 µM
same,TGI,MALME-3M melanoma,2.94 µM
same,GI50,SK-MEL-28 melanoma,1.71 µM
same,TGI,SK-MEL-28 melanoma,3.88 µM
same,GI50,HCT-116 colon,0.319 µM
same,TGI,HCT-116 colon,1.92 µM
same,GI50,M14 melanoma,1.36 µM
same,TGI,M14 melanoma,3.32 µM
same,GI50,MDA-MB-231 breast,1.54 µM
same,TGI,MDA-MB-231 breast,7.41 µM
same,GI50,RXF 393 renal,0.337 µM
same,TGI,RXF 393 renal,0.965 µM
same,GI50,UO-31 renal,0.815 µM
same,TGI,UO-31 renal,3.22 µM
same,GI50,A549 NSCLC,3.04 µM
same,TGI,A549 NSCLC,9.27 µM
same,GI50,COLO 205 colon,0.638 µM
same,TGI,COLO 205 colon,2.25 µM
same,GI50,TK-10 renal,2.75 µM
same,TGI,TK-10 renal,6.87 µM
same,GI50,UACC-62 melanoma,1.64 µM
same,TGI,UACC-62 melanoma,4 µM
same,GI50,CAKI-1 renal,0.466 µM
same,TGI,CAKI-1 renal,10.8 µM
same,GI50,NCI-H522 lung,0.474 µM
same,TGI,NCI-H522 lung,2.1 µM
same,GI50,SF-539 CNS,1.56 µM
same,TGI,SF-539 CNS,3.96 µM
same,GI50,MDA-MB-435,1.48 µM
same,TGI,MDA-MB-435,3.71 µM
